Measurements published in patent US9597326B2 (priority 2010, dated 2017).

How the values were obtained:
human TLR7 = human TLR7 (Homo sapiens (Human), UniProt Q9NYK1); format: cell-based; conditions: HEK293 reporter; relative to resiquimod set to 100%
[1] = tested on: cytokines (IFN-γ, IL-10, IL-12 p40, IL-1β, IL-5, IL-6, MCP-1, KC, TNF-α); format: in vivo, mice; conditions: IP; peak concentration over 24 h; FIG. 6

Chain of human TLR7 (Q9NYK1 27-1049 limits assumed): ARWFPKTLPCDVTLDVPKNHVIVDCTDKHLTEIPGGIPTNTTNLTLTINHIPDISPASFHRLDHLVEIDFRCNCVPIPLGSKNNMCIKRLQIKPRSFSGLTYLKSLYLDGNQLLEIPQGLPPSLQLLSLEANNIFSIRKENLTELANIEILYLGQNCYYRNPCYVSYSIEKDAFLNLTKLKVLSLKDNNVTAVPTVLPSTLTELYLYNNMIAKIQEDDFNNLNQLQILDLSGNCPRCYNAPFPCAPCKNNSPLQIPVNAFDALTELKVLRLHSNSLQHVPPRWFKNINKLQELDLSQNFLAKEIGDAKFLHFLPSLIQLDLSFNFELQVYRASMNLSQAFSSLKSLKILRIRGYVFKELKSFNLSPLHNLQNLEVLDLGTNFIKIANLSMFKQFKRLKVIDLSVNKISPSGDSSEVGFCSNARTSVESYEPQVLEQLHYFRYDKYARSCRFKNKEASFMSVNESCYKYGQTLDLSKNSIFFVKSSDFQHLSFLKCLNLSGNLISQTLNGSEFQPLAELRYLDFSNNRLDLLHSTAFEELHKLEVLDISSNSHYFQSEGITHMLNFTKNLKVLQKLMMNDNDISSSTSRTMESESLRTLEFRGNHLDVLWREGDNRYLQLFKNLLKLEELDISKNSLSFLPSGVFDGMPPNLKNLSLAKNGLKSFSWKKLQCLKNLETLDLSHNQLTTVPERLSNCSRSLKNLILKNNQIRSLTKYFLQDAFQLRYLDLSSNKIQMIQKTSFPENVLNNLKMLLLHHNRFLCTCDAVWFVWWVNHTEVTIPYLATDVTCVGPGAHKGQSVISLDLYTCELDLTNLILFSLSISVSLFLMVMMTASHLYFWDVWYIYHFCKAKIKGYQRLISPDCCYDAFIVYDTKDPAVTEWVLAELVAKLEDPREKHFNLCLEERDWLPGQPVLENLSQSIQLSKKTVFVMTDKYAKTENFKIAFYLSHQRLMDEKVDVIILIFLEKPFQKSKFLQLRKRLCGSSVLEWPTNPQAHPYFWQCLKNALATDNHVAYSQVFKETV

Structure (SMILES)	EC50 (human TLR7) [nM]	cytokine induction of IL-5 compared to peanut oil-control [1]	cytokines induced compared to peanut oil-control [1]	cytokine induction of IL-1β compared to R-848 [1]
COc1ccc(CCc2cnc3c(N)nc4cc(C(C)(P(=O)(O)O)P(=O)(O)O)ccc4c3c2)c(C)c1 [Compound 19]	23800			
CCOCc1nc2c(N)nc3ccccc3c2n1CC(C)(C)O [R-848, resiquimod, reference compound]		Neither administration of SMIP 28 nor R-848, compared to peanut oil-control, resulted in a cytokine induction of IL-5	cytokine induction of IFN-γ, IL-10, IL-12 p40, IL-6, MCP-1, mKC, and TNF-α	
COc1ccc(CCc2cnc3c(N)nc4cc(C)ccc4c3c2)c(C)c1 [SMIP 28, 2-(4-methoxy-2-methylphenethyl)-8-methylbenzo[f][1,7]naphthyridin-5-amine]		Neither administration of SMIP 28 nor R-848, compared to peanut oil-control, resulted in a cytokine induction of IL-5	cytokine induction of IFN-γ, IL-12 p40, IL-1β, IL-6, MCP-1, mKC, and TNF-α	significantly greater cytokine induction of IL-1β
